Test results as given in US7241771B2, “Oxepane isomer of 42-O-(2-hydroxy)ethyl-rapamycin” (Wyeth, priority 2005, dated 2007).
Values after ≈ are worked out from the molar mass of the structure shown.

How the values were obtained:
Test in all cases: Antifungal activity, microtiter MIC
Assay type in all cases: cell-based
Candida zeylanoided = Candida zeylanoided strain 94-15; RPMI 1640, 35° C., 24–48 hours
Experimental: (§1) Antifungal activity for the compound of this invention was established by evaluation against several strains of fungi. Briefly, the following procedure was used to evaluate such activity. A 96 well microtiter plate was filled (50 μL/well) with RPMI 1640. The compounds to be evaluated were placed in appropriate wells and serial diluted in successive wells to provide several dilutions. The concentrations ranged from […]. An adjusted inoculum of fungi (50 μL) was added to each well and plates were incubated at 35° C. for 24–48 hours.

Candida parapsilosis = settings: RPMI 1640, 35° C., 24–48 hours; for MIC: Lodderomyces parapsilosis
Experimental: as §1

Candida krussii = Candida krussii strain 94-2; RPMI 1640, 35° C., 24–48 hours
Experimental: as §1

Aspergillus niger = Aspergillus niger strain ATCC 16404, RPMI 1640, 35° C., 24–48 hours
Experimental: as §1

Candida lusitaniae = Candida lusitaniae strain 94-3, RPMI 1640, 35° C., 24–48 hours
Experimental: as §1

Candida pseudotropicalis = Candida pseudotropicalis strain ATCC 28838, RPMI 1640, 35° C., 24–48 hours
Experimental: as §1

Candida rugosa = Candida rugosa strain 94-10, RPMI 1640, 35° C., 24–48 hours
Experimental: as §1

Aspergillus flavusr = Aspergillus flavusr strain S506; RPMI 1640, 35° C., 24–48 hours
Experimental: as §1

Candida tropicalis = settings: RPMI 1640, 35° C., 24–48 hours
Experimental: as §1

Candida albicans = settings: RPMI 1640, 35° C., 24–48 hours; for MIC: Candida albicans
Experimental: as §1

Aspergillus fumigatus = Aspergillus fumigatus strain ATCC 26933, RPMI 1640, 35° C., 24–48 hours
Experimental: as §1

[1] = Candida parapsilosis strain 94-8
[2] = Candida parapsilosis strain 94-9
[3] = Candida parapsilosis strain ATCC 90018
[4] = Candida tropicalis strain 94-13
[5] = Candida tropicalis strain 94-14
[6] = Candida albicans strain ATCC 90028

Row | Structure (SMILES) | Antifungal Activity (MIC) (Candida zeylanoided) | Antifungal Activity (MIC) (Candida parapsilosis; [1]) | Antifungal Activity (MIC) (Candida parapsilosis; [2]) | Antifungal Activity (MIC) (Candida parapsilosis; [3]) | Antifungal Activity (MIC) (Candida krussii) | Antifungal Activity (MIC) (Aspergillus niger) | Antifungal Activity (MIC) (Candida lusitaniae) | Antifungal Activity (MIC) (Candida pseudotropicalis) | Antifungal Activity (MIC) (Candida rugosa) | Antifungal Activity (MIC) (Aspergillus flavusr) | Antifungal Activity (MIC) (Candida tropicalis; [4]) | Antifungal Activity (MIC) (Candida tropicalis; [5]) | Antifungal Activity (MIC) (Candida albicans; Candida albicans strain 94-1) | Antifungal Activity (MIC) (Candida albicans; Candida albicans strain 1063) | Antifungal Activity (MIC) (Candida albicans; Candida albicans strain 1117) | Antifungal Activity (MIC) (Candida albicans; [6]) | Antifungal Activity (MIC) (Aspergillus fumigatus) | further results
1 | C[C@@H]1[C@H](O)[C@@H](C)/C=C/C=C/C=C/C=C/C=C/C=C/C=C/[C@H](O[C@@H]2O[C@H](C)[C@@H](O)[C@H](N)[C@@H]2O)C[C@@H]2O[C@](O)(C[C@@H](O)C[C@@H](O)[C@H](O)CC[C@@H](O)C[C@@H](O)CC(=O)O[C@H]1C)C[C@H](O)[C@H]2C(=O)O [Amphotericin B] | 0.25 µg/mL | ≦0.06 μg/mL | 0.125 µg/mL | ≦0.06 μg/mL | 0.125 µg/mL | 0.25 µg/mL | 0.125 µg/mL | ≦0.06 μg/mL | 0.25 µg/mL | 0.50 µg/mL | 0.125 µg/mL | 0.125 µg/mL | 0.125 µg/mL | ≦0.06 μg/mL | ≦0.06 μg/mL | 0.125 µg/mL | 0.25 µg/mL | 
2 | COC1CC2CCC(C)C(=O)C(O)(O2)C(=O)N2CCCCC2C(=O)OC(C(C)CC2CCC(OCCO)C(OC)C2)CC(=O)C(C)/C=C(\C)C(O)C(OC)C(=O)C(C)CC(C)/C=C/C=C/C=C/1C (stereo not drawn) [Compound, 1,17-dihydroxy-11-{2-[4-(2-hydroxy-ethoxy)-3-methoxy-cyclohexyl]-1methyl-ethyl}-18,29-dimethoxy-14,16,20,22,28,34-hexamethyl-10,36-dioxa-3-aza-tricyclo[29.4.1.0˜3,8]hexatriaconta-15,23,25,27-tetraen-2,9,13,19,35-pentaone] |  | 0.125 µg/mL |  |  |  |  |  |  |  |  | 0.125 µg/mL |  |  |  |  |  |  | MIC (Candida zeylanoided): ≤ 0.06 µg/mL; MIC (Candida parapsilosis; ATCC90018, Candida parapsilosis strain ATCC 90018): 0.25 µg/mL (≈ 0.261 µM); MIC (Candida parapsilosis; [2]): 0.125 µg/mL (≈ 0.13 µM); MIC (Candida krussii): 0.5 µg/mL (≈ 0.522 µM); MIC (Aspergillus niger; ATCC16404): 8 µg/mL (≈ 8.35 µM); MIC (Candida lusitaniae; Clavispora lusitaniae): ≤ 0.06 µg/mL; MIC (Candida pseudotropicalis; Kluyveromyces marxianus, ATCC28838): ≤ 0.06 µg/mL; MIC (Candida rugosa; Diutina rugosa): 0.25 µg/mL (≈ 0.261 µM); MIC (Aspergillus flavusr): 8 µg/mL (≈ 8.35 µM); MIC (Candida tropicalis; [5]): 0.125 µg/mL (≈ 0.13 µM); MIC (Candida albicans; ATCC90028, Candida albicans strain ATCC 90028): 0.125 µg/mL (≈ 0.13 µM); MIC (Candida albicans; Candida albicans strain 94-1): 0.25 µg/mL (≈ 0.261 µM); MIC (Candida albicans; Candida albicans strain 1063): ≤ 0.06 µg/mL; MIC (Candida albicans; Candida albicans strain 1117): 0.125 µg/mL (≈ 0.13 µM); MIC (Aspergillus fumigatus; ATCC26933): 32 µg/mL (≈ 33.4 µM)
3 | C[C@@H]1[C@H](O)[C@@H](C)/C=C/C=C/CC/C=C/C=C/C=C/C=C/C(O[C@H]2O[C@H](C)[C@@H](O)[C@H](N)[C@@H]2O)CC2O[C@](O)(CC(O)C(O)CCC(O)CC(O)CC(O)CC(=O)O[C@H]1C)CC(O)C2C(=O)O (stereo partly drawn) [Nystatin] | 1 µg/mL | 2 µg/mL | 1 µg/mL | 2 µg/mL | 1 µg/mL | 1 µg/mL | 1 µg/mL | 1 µg/mL | 1 µg/mL | 2 µg/mL | 1 µg/mL | 2 µg/mL | 2 µg/mL | 1 µg/mL | 1 µg/mL | 1 µg/mL | 2 µg/mL | 
